Values quoted from earlier work in patent US20070043121A1 (priority 2003, published 2007).

How the values were obtained:
[1] = water
[2] = tested on: sodium channel (3H-batrachotoxin)

SMILES: CC(C)c1cccc(C(C)C)c1O [Propofal, 2,6-diisopropylphenol]
- aqueous solubility [1]: very water insoluble
- IC50 [2]: 26 µM
